Test results reported in the NIST ThermoML archive (doi:10.1016/j.tca.2019.178383).

Experiment: xn = mol fraction of the nth substance listed
Conditions: for surface tension liquid-gas: Maximal bubble pressure; for mass density: 100 kPa, Liquid, Vibrating tube method

CCn1cc[n+](CCOC)c1.O=S(=O)([O-])C(F)(F)F + CCCO
Conditions | mass density, 288.15 K [kg/m3] | mass density, 293.15 K [kg/m3] | mass density, 298.15 K [kg/m3] | surface tension liquid-gas, 288.15 K [mN/m] | surface tension liquid-gas, 293.15 K [mN/m] | surface tension liquid-gas, 298.15 K [mN/m] | surface tension liquid-gas, 303.15 K [mN/m]
x1 = 0.0987 | 944.376 | 940.25 | 936.122 | 23.4 | 23.1 | 22.7 | 22.4
x1 = 0.1999 | 1043.54 | 1039.33 | 1035.12 | 24.2 | 23.8 | 23.5 | 23.1
x1 = 0.2982 | 1114.64 | 1110.4 | 1106.16 | 25 | 24.7 | 24.3 | 24
x1 = 0.3994 | 1171.5 | 1167.24 | 1162.99 | 26.2 | 25.9 | 25.5 | 25.1
x1 = 0.499 | 1215.82 | 1211.56 | 1207.32 | 27.7 | 27.4 | 27.1 | 26.7
x1 = 0.5993 | 1252.38 | 1248.12 | 1243.87 | 29.5 | 29.2 | 28.9 | 28.6
x1 = 0.6979 | 1282.09 | 1277.83 | 1273.58 | 31.5 | 31.3 | 31 | 30.7
x1 = 0.8009 | 1308.48 | 1304.21 | 1299.97 | 33 | 32.7 | 32.5 | 32.2
x1 = 0.8992 | 1329.95 | 1325.68 | 1321.43 | 34.8 | 34.6 | 34.4 | 34.2
x1 = 1 | 1348.94 | 1344.66 | 1340.41 | 36.3 | 36.1 | 35.8 | 35.5
